What was measured:
Assay type in all cases: cell-based
[1] = system: small cell lung carcinoma H 69; assay: In vitro cytotoxicity on human cell lines: small cell lung carcinoma H 69; conditions: 96 h, small cell lung carcinoma H 69, incubation 4 days
Description: (§1) Murine leukaemia L1210 was used in vitro. The cells are cultured in RPMI 1640 complete culture medium containing 10% foetal calf serum, 2 mM glutamine, 50 units/ml of penicillin, 50 μg/ml of streptomycin and 10 mM Hepes, pH: 7.4. The cells are distributed on microplates and exposed to the cytotoxic compounds for 4 doubling periods, or 48 hours. The number of viable cells is then quantified by means of a colorimetric assay, the Microculture Tetrazolium Assay (J. Carmichael et al., Cancer Res., 47, 936–942, (1987)). The results are expressed as IC50, the concentration of cytotoxic agent which inhibits the proliferation of the treated cells by 50%.
(§2) The compounds of the invention were also tested on human cell lines according to the same experimental protocol as that described for murine leukaemia L1210, but with incubation times of 4 days instead of 2 days.

[2] = system: epidermoid carcinoma A431; assay: In vitro cytotoxicity on human cell lines: epidermoid carcinoma A431; conditions: A-431, 96 h, epidermoid carcinoma A431, incubation 4 days
Description: as §1, §2

neuroblastoma SK-N-MC = assay: In vitro cytotoxicity on human cell lines: neuroblastoma SK-N-MC; conditions: 96 h, incubation 4 days
Description: as §1, §2

Murine leukaemia L1210 = assay: In vitro cytotoxicity, murine leukaemia L1210 (Microculture Tetrazolium Assay); conditions: Mus musculus; L1210, exposure 4 doubling periods, or 48 hours; read-out: IC50, the concentration of cytotoxic agent which inhibits the proliferation of the treated cells by 50%
Description: as §1

O=C1NC(=O)c2c1c1c3ccccc3[nH]c1c1c2c2cccnc2n1[C@@H]1O[C@H](CO)[C@@H](O)[C@H](O)[C@H]1O [Example 3, 13-(β-D-glucopyranosyl)-12,13-dihydro-5H-pyrido[3′,2′:4,5]pyrrolo-[2,3-a]pyrrolo[3,4-c]carbazole-5,7(6H)-dione]
IC50 [1]: < 1000 nM | IC50 [2]: < 1000 nM | IC50 (neuroblastoma SK-N-MC): < 1000 nM

O=C1NC(=O)c2c1c1c3cc(Br)ccc3[nH]c1c1c2c2cccnc2n1[C@@H]1O[C@H](CO)[C@@H](O)[C@H](O)[C@H]1O [Example 4, 9-bromo-13-(β-D-glucopyranosyl)-12,13-dihydro-5H-pyrido-[3′,2′:4,5]pyrrolo[2,3-a]pyrrolo [3,4-c]carbazole-5,7(6H)-dione]
IC50 [1]: < 1000 nM | IC50 [2]: < 1000 nM | IC50 (Murine leukaemia L1210): < 100 nM | IC50 (neuroblastoma SK-N-MC): < 1000 nM

O=C1NC(=O)c2c1c1c3cc([N+](=O)[O-])ccc3[nH]c1c1c2c2cccnc2n1[C@@H]1O[C@H](CO)[C@@H](O)[C@H](O)[C@H]1O [Example 5, 9-nitro-13-(β-D-glucopyranosyl)-12,13-dihydro-5H-pyrido-[3′,2′:4,5]pyrrolo[2,3-a]pyrrolo[3,4-c]carbazole-5,7(6H)-dione]
IC50 [1]: < 1000 nM | IC50 [2]: < 1000 nM | IC50 (Murine leukaemia L1210): < 100 nM | IC50 (neuroblastoma SK-N-MC): < 1000 nM

O=C1NC(=O)c2c1c1c3cccnc3[nH]c1c1c2c2ccccc2n1[C@@H]1O[C@H](CO)[C@@H](O)[C@H](O)[C@H]1O [Example 9, 12-(β-D-glucopyranosyl)-12,13-dihydro-5H-pyrido[3′,2′:4,5]pyrrolo-[2,3-a]pyrrolo[3,4-c]carbazole-5,7(6H)-dione]
IC50 (Murine leukaemia L1210): < 100 nM

O=C1NC(=O)c2c1c1c3cccnc3[nH]c1c1c2c2cccnc2n1[C@@H]1O[C@H](CO)[C@@H](O)[C@H](O)[C@H]1O [Example 12, 12-(β-D-glucopyranosyl)-12,13-dihydro-5H-pyrido[2,3-b]-pyrido[3′,2′:4,5]pyrrolo[3,2-g]pyrrolo[3,4-e]indole-5,7(6H)-dione]
IC50 (Murine leukaemia L1210): < 100 nM

CN1C(=O)c2c(c3c4cccnc4n([C@@H]4O[C@H](CO)[C@@H](O)[C@H](O)[C@H]4O)c3c3[nH]c4ccccc4c23)C1=O [Example 17, 13-(β-D-glucopyranosyl)-6-methyl-12,13-dihydro-5H-pyrido-[3′,2′:4,5]pyrrolo [2,3-a]pyrrolo [3,4-c]carbazole-5,7(6H)-dione]
IC50 [1]: < 1000 nM | IC50 [2]: < 1000 nM | IC50 (neuroblastoma SK-N-MC): < 1000 nM

CN1C(=O)c2c(c3c4cccnc4n([C@@H]4O[C@H](CO)[C@@H](O)[C@H](O)[C@H]4O)c3c3[nH]c4ccc(Br)cc4c23)C1=O [Example 19, 13-(β-D-glucopyranosyl)-9-bromo-6-methyl-12,13-dihydro-5H-pyrido[3′,2′:4,5]pyrrolo[2,3-a]pyrrolo[3,4-c]carbazole-5,7(6H)-dione]
IC50 [1]: < 1000 nM | IC50 [2]: < 1000 nM | IC50 (neuroblastoma SK-N-MC): < 1000 nM

Reference: patent publication US7001906B2, “Pyrido-pyrido-pyrrolo pyrrolo-indole and pyrido-pyrrolo pyrrolo carbazole derivatives, method for the production thereof and pharmaceutical compositions containing said derivatives” (Les Laboratoires Servier, priority 2001, dated 2006)
